In ChEMBL document CHEMBL5465560, “Selectivity Literature for EUbOPEN Chemogenomic Library” (2024):
Blank lines part the entries; values can stand above or below the molecule they belong to.

How the values were obtained:
[1] = molecular target: Bromodomain-containing protein 2 (Homo sapiens) (UniProt P25440); assay: Selectivity interaction (Human bromodomain panel (DSF assay)) EUB0000233b BRD2
[2] = molecular target: Mitogen-activated protein kinase kinase kinase kinase 4 (Homo sapiens, UniProt O95819); assay: Selectivity interaction (Enzymatic assay) EUB0001199aCl MAP4K4
Sequence of Mitogen-activated protein kinase kinase kinase kinase 4 (O95819 whole entry): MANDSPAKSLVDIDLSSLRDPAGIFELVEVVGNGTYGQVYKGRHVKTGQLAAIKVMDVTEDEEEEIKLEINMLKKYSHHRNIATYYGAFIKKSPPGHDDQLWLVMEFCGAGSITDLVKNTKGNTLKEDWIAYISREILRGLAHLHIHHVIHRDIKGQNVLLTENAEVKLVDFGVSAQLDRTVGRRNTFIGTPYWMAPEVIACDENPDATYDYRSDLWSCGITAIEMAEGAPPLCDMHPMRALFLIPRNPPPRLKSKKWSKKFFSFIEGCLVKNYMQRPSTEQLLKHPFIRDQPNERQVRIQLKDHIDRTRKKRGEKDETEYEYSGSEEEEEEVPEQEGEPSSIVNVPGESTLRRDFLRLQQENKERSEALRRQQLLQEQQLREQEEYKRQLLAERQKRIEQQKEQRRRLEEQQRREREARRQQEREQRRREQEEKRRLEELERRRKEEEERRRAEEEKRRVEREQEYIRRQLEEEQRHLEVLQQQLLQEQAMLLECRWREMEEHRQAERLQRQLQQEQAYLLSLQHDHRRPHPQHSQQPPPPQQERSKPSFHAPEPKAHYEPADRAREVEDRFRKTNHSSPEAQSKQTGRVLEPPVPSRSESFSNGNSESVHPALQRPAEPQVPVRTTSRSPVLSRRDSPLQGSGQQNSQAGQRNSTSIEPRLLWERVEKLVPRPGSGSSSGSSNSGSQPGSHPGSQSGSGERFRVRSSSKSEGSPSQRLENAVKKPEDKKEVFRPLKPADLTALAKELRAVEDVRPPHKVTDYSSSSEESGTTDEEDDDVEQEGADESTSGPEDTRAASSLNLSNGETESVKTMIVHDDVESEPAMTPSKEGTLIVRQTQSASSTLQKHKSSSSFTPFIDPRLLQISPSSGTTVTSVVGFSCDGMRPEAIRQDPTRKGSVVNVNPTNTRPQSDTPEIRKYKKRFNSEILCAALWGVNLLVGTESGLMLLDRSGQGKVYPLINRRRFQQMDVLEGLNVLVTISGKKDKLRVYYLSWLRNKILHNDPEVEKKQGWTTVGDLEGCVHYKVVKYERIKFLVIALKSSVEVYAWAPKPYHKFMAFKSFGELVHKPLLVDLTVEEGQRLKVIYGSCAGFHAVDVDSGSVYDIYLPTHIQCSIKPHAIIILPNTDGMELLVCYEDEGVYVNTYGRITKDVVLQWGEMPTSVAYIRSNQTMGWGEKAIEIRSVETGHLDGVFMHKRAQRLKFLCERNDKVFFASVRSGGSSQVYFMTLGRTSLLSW

[3] = molecular target: T1, Tyrosine-protein kinase ITK/TSK (Homo sapiens) (UniProt Q08881); assay: Selectivity interaction (KinomeScan (DiscoverX)) EUB0000607a ITK; conditions: at 10 µM
T1 sequence (whole entry): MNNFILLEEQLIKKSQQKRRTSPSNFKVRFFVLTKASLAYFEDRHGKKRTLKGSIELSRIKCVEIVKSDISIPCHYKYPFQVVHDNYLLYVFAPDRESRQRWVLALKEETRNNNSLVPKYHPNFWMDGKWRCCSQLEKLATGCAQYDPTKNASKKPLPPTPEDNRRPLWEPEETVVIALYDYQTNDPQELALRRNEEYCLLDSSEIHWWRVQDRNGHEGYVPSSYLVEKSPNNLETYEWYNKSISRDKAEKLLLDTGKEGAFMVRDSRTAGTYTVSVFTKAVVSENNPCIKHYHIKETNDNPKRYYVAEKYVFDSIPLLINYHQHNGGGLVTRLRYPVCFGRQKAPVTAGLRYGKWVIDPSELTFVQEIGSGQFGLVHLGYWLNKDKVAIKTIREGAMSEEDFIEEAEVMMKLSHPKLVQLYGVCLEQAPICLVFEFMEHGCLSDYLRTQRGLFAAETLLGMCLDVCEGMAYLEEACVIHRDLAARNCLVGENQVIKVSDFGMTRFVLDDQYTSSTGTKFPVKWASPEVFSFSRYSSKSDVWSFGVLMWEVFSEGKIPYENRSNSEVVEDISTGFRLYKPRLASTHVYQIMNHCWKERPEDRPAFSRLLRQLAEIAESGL

[4] = molecular target: Mitogen-activated protein kinase kinase kinase 11 (Homo sapiens) (UniProt Q16584); assay: Selectivity interaction (ActivX KiNativ screen (kinase selectivity in THP-1 cell lysates)) EUB0000639a MAP3K11; format: subcellular; conditions: lysate
Sequence of Mitogen-activated protein kinase kinase kinase 11 (Homo sapiens) (Q16584 whole entry, looked up): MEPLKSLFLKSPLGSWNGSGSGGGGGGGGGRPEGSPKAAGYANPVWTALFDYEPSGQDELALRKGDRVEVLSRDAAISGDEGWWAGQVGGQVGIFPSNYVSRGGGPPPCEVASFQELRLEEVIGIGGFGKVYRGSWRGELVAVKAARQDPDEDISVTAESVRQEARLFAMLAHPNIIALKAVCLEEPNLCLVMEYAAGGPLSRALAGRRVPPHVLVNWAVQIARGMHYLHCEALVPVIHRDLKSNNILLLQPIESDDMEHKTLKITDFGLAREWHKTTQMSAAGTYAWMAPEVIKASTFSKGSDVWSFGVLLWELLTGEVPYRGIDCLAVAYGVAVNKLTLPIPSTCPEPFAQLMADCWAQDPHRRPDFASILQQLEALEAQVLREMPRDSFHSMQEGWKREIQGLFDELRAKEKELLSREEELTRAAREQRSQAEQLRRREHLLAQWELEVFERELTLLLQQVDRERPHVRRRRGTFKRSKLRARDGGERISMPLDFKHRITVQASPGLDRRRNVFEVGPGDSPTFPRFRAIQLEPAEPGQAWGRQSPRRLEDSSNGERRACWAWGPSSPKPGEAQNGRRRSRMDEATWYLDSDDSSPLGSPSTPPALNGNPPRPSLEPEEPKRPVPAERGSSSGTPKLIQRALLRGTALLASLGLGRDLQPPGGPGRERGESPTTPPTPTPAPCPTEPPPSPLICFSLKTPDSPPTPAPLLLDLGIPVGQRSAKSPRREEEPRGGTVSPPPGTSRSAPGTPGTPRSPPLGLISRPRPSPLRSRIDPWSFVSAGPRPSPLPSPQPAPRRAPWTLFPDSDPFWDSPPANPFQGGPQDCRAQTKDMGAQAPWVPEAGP

[5] = molecular target: T2, Serine/threonine-protein kinase TAO1 (Homo sapiens) (UniProt Q7L7X3); assay: Selectivity interaction (KinomeScan (DiscoverX)) EUB0000595a TAOK1; conditions: at 10 µM
T2 sequence (whole entry): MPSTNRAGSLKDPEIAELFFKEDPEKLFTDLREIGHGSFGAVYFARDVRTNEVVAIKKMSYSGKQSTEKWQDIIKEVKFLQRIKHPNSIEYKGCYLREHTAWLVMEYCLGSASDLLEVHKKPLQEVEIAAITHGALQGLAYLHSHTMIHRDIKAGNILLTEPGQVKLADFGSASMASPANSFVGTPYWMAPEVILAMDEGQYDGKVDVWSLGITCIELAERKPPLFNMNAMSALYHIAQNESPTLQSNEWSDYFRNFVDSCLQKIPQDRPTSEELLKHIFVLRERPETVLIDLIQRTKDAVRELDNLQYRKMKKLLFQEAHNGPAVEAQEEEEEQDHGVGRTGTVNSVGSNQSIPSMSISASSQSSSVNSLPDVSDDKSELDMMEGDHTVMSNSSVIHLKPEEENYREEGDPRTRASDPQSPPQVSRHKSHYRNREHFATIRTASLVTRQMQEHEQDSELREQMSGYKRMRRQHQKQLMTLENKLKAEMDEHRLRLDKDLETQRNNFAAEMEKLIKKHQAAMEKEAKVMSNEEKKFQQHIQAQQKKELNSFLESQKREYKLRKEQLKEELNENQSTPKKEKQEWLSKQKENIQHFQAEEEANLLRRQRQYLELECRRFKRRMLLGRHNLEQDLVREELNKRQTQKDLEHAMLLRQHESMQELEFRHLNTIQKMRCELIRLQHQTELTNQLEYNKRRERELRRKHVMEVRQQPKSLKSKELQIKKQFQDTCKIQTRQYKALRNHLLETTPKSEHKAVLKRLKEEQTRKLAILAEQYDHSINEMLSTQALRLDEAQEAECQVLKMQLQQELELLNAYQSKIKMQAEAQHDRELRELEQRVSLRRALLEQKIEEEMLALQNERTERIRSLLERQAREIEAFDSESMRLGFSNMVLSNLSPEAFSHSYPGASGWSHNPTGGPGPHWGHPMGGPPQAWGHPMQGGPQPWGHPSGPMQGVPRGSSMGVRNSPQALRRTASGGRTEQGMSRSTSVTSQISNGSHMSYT

[6] = molecular target: Serine/threonine-protein kinase SIK1 (Homo sapiens) (UniProt P57059); assay: Selectivity interaction (KinomeScan (DiscoverX)) EUB0001049a SIK1; conditions: at 1 µM
Sequence of Serine/threonine-protein kinase SIK1 (Homo sapiens) (P57059 whole entry): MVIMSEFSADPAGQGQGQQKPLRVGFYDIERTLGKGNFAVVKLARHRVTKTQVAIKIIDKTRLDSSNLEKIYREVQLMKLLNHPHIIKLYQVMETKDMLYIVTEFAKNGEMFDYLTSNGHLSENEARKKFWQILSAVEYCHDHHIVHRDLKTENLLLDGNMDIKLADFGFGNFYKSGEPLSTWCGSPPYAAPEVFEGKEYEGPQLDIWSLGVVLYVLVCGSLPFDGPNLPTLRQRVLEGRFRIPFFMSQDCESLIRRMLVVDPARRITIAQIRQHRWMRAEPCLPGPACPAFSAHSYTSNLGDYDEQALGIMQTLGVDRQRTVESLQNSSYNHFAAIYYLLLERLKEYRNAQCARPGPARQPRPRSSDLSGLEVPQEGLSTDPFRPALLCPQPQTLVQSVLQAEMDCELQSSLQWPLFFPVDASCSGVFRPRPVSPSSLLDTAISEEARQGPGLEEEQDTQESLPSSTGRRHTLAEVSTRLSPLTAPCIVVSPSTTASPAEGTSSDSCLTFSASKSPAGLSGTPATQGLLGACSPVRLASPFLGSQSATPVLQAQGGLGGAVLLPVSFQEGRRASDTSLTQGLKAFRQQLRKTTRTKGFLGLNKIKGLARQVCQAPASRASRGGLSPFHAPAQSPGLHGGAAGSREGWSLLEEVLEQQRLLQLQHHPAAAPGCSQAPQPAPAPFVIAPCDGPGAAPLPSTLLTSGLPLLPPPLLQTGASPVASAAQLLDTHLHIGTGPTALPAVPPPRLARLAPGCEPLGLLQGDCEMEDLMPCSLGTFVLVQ

[7] = molecular target: Acetylcholine receptor subunit alpha (Homo sapiens, UniProt P02708); assay: Selectivity interaction (Panel of kinases, GPCRs, ion channels and transporters (enzymatic assay)) EUB0000223bCl CHRNA1
Sequence of Acetylcholine receptor subunit alpha (P02708 whole entry): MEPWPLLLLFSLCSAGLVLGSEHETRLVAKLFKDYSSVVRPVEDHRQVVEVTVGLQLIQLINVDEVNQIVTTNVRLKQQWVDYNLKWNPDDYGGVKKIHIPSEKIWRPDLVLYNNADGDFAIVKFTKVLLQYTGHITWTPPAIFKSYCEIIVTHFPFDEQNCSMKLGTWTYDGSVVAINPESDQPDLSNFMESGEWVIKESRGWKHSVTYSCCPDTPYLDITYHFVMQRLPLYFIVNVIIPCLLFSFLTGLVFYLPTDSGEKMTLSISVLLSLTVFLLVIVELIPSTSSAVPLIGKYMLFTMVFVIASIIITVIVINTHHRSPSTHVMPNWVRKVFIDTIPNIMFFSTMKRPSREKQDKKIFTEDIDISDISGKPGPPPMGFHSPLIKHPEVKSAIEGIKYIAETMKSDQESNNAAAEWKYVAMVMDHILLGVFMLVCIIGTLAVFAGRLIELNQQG

[8] = molecular target: Ribosomal protein S6 kinase alpha-1 (Homo sapiens, UniProt Q15418); assay: Selectivity interaction (KinomeScan (DiscoverX)) EUB0000655a RPS6KA1; conditions: at 10 µM
Sequence of Ribosomal protein S6 kinase alpha-1 (Q15418 whole entry): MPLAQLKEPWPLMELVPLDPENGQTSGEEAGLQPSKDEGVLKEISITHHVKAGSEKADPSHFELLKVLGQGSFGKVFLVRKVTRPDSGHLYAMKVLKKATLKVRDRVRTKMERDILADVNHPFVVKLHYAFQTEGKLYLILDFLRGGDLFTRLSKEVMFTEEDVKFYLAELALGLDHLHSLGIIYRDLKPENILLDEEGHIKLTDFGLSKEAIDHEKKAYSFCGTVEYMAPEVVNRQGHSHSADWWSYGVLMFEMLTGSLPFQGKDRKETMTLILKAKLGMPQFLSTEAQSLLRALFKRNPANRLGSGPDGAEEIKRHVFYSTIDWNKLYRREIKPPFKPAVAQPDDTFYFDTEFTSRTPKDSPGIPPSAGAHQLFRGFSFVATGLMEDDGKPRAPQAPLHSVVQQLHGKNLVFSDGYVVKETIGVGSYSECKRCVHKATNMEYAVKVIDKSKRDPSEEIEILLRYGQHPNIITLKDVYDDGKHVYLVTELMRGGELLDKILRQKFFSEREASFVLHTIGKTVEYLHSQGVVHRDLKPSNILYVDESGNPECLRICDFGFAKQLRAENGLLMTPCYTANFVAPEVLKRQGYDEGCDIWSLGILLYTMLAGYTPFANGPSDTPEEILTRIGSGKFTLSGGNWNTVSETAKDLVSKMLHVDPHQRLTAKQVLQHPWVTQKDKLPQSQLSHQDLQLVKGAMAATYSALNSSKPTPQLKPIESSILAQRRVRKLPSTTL

[9] = molecular target: Macrophage colony-stimulating factor 1 receptor (Homo sapiens) (UniProt P07333); conditions: at 10 µM
Sequence of Macrophage colony-stimulating factor 1 receptor (Homo sapiens) (P07333 whole entry): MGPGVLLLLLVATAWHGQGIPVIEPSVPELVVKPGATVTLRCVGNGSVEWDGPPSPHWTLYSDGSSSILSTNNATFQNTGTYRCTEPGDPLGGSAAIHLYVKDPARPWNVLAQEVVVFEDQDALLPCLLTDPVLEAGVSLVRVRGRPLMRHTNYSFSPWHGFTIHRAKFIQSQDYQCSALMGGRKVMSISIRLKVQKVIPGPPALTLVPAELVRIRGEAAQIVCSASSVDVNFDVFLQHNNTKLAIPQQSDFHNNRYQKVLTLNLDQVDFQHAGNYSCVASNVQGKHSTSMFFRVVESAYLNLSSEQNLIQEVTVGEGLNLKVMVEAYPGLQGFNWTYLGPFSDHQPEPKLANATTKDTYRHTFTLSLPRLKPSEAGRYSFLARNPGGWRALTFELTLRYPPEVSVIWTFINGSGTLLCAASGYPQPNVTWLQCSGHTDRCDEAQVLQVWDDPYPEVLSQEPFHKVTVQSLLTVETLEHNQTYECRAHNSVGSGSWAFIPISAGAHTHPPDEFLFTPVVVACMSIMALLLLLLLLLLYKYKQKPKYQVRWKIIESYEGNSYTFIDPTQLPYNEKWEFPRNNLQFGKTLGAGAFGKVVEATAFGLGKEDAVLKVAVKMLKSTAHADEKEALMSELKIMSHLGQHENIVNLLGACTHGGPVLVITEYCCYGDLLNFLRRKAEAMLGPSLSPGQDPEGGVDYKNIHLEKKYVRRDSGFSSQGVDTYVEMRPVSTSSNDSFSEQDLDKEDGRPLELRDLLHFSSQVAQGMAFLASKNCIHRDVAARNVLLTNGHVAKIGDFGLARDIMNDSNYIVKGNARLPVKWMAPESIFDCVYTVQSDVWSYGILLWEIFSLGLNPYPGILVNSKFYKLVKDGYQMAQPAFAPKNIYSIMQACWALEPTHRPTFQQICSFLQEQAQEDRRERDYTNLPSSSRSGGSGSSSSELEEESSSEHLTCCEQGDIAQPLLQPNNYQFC

Insulin receptor = Insulin receptor (Homo sapiens, UniProt P06213); assay: Selectivity interaction (KinomeScan (DiscoverX)) EUB0000618a INSR; conditions: at 10 µM
[10] = molecular target: T3, Mitogen-activated protein kinase 13 (Homo sapiens) (UniProt O15264); assay: Selectivity interaction (KinomeScan (DiscoverX)) EUB0001619a MAPK13; conditions: at 1 µM
T3 sequence (whole entry): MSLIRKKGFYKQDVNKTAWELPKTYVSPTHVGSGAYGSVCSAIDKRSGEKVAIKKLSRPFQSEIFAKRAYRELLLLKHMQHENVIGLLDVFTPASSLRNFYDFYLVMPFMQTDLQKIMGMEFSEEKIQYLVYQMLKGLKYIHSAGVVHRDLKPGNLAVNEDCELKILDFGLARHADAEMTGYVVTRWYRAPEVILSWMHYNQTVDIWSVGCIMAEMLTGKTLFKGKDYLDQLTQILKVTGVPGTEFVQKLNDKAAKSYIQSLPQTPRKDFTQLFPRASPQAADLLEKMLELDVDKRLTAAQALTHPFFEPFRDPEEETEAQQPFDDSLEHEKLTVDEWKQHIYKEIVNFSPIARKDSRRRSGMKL

dTM [1]: < 2 K
SMILES: CN(C)CCCOc1ccc(-c2cc(NCCCn3cccn3)nc(S(C)(=O)=O)n2)cc1

IC50 [2]: 873 nM
SMILES: CN1Cc2nccc(-c3cn(C)nc3-c3ccc(F)cc3)c2C1=O

SMILES: CNC(=O)Nc1ccc(-c2nc(N3CC4CCC(C3)O4)c3cnn(C4CCC5(CC4)OCCO5)c3n2)cc1
% of control [3]: 88%

% of inhibition ([4]; at 0.01 µM): 3.8%
% of inhibition ([4]; at 0.04 µM): -0.9%
% of inhibition ([4]; at 0.2 µM): 5%
% of inhibition ([4]; at 1 µM): 8.5%
% of inhibition ([4]; at 5 µM): 17%
SMILES: CC[C@@H]1[C@H](F)C(=O)N[C@@H]1COc1nccc2cc(C(N)=O)c(OC)cc12 [ZIMLOVISERTIB]

SMILES: COCC(=O)NC/C=C/c1ccc2ncnc(Nc3ccc(Oc4ccc(C)nc4)c(C)c3)c2c1 [CP-724714]
% of control [5]: 94%

SMILES: COc1cc(Nc2nc(C)cc(-c3cnn4nc(OC)ccc34)n2)cc(C(F)(F)F)c1
% of control [6]: 93%

SMILES: COc1cc(C(=O)N2CC[C@@H](O)[C@@H](N)C2)cc2nc(-c3cc4ccccc4n3CC3CC3)n(C)c12
pXC50 [7]: < 4.3 M

SMILES: CN(C)CCOc1ccc(-c2nc(-c3ccncc3)c(-c3ccc4c(c3)CC/C4=N\O)[nH]2)cc1
% of control [8]: 81%

SMILES: Cc1cc([C@@H](C)Nc2ccccc2C(=O)O)c2nc(N3CCOCC3)cc(=O)n2c1 [AZD-6482]
% of control [9]: 94%

SMILES: O[C@H]1CC[C@H](Nc2ncc3nc(Nc4c(F)cc(F)cc4F)n([C@H]4CCOC4)c3n2)CC1
% of control (Insulin receptor): 98%

SMILES: N#Cc1cccc(-c2c[nH]c3ncnc(N4CCOCC4)c23)c1
% of control [10]: 70%
